# In patent publication US11945822B2, “Pyrazolo-triazine and/or pyrazolo-pxrimidine derivatives as selective inhibitor of cyclin dependent kinase” (QURIENT CO., LTD., priority 2018, dated 2024):
# Like-named read-outs stand apart in the source and are kept apart here.
# How the values were obtained:
# [1] = target: T1, CDK1/Cyclin B (Homo sapiens, UniProt P06493); assay: Enzymatic assay for CDK1 (FRET based LANCE Ultra kinase assay); assay type: biochemical
# T1 construct: purchased Invitrogen PR4768C
# T1 sequence (P06493 whole entry): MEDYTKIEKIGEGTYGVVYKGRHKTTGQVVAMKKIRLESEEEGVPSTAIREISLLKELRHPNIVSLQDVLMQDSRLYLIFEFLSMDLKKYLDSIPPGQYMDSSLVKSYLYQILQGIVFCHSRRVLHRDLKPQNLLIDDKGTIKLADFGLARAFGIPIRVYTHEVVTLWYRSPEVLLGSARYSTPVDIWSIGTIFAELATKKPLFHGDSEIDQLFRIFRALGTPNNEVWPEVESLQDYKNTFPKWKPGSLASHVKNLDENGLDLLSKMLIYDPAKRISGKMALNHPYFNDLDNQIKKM
# T1 sequence (P14635 whole entry partner): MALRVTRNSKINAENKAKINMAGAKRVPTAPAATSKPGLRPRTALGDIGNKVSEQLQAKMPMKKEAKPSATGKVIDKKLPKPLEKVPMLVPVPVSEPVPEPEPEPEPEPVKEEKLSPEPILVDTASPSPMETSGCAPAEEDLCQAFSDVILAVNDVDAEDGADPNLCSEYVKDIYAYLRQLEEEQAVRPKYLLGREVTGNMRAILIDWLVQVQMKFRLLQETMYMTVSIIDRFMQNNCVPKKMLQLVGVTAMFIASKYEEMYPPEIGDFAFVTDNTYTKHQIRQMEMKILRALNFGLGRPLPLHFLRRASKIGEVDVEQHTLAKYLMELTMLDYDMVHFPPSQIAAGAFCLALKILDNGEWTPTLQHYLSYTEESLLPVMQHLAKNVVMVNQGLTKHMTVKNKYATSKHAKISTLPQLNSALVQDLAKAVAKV
# How it was run: (§1)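 Each CDK complex ([…]) phosphorylated 68 nM ULight-MBP peptide with ATP at Km for 60 min at 23° C., against 8 compound doses (4-fold dilutions). EDTA/Eu-anti-phospho-MBP detection, 60 min, then TR-FRET emission at 615 and 665 nm.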
# [2] = target: T2, CDK2/Cyclin A (Homo sapiens, UniProt P24941); assay: Enzymatic assay for CDK2 (FRET based LANCE Ultra kinase assay); assay type: biochemical
# T2 construct: purchased Invitrogen PV6290
# How it was run: as §1
# [3] = target: T3, CDK5/p25 (Homo sapiens, UniProt Q00535); assay: Enzymatic assay for CDK5 (FRET based LANCE Ultra kinase assay); assay type: biochemical
# T3 construct: purchased Invitrogen PR8543B
# T3 sequence (Q00535 whole entry): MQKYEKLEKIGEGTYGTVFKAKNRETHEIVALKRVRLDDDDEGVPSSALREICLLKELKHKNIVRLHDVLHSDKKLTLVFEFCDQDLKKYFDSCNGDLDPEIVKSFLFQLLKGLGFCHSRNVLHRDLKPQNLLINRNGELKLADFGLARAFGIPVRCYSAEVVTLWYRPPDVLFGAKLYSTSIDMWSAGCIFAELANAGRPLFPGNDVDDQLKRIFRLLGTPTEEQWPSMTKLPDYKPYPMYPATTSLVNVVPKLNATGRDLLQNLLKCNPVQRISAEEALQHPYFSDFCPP
# T3 sequence (Q15078 99-307 partner limits assumed): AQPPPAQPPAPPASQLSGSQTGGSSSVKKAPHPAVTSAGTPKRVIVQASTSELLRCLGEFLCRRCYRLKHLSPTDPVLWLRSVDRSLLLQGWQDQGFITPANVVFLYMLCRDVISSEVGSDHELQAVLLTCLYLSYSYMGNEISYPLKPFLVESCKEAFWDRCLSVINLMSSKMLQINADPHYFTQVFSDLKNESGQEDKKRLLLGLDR
# How it was run: as §1
# [4] = target: T4, CDK7/Cyclin H/MNAT1 (Homo sapiens, UniProt P50613); assay: Enzymatic assay for CDK7 (FRET based LANCE Ultra kinase assay); assay type: biochemical
# T4 construct: purchased Invitrogen PR6749B
# T4 sequence (P50613 whole entry): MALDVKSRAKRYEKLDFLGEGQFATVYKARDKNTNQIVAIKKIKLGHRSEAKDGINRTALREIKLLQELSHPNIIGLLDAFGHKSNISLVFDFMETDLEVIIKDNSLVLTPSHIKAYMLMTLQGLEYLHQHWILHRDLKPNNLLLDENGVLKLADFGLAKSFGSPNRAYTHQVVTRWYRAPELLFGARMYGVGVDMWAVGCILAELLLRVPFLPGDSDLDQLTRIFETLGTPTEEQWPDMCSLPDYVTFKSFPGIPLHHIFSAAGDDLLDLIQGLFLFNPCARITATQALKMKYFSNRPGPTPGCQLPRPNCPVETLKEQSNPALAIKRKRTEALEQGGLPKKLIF
# T4 sequence (P51946 whole entry partner): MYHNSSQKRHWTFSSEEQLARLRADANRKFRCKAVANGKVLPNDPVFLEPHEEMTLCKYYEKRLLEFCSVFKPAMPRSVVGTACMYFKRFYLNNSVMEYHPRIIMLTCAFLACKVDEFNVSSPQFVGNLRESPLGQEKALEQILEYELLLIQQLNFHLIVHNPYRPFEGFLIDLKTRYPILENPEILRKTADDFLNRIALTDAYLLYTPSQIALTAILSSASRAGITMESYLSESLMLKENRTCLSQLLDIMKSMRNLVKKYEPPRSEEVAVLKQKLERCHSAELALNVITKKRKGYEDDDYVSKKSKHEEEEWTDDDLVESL
# T4 sequence (P51948 whole entry partner): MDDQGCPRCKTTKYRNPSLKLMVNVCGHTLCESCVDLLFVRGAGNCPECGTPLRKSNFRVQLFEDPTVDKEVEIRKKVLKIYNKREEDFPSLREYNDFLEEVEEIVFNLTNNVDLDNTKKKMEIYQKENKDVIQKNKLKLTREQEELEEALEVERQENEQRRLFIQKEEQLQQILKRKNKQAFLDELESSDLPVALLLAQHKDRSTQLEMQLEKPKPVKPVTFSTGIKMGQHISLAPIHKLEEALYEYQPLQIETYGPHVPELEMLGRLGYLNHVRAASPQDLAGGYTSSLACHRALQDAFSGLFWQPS
# How it was run: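 LANCE Ultra TR-FRET kinase assay using a ULight-labeled peptide substrate and a Eu-labeled anti-phospho antibody, with ATP at its Km. Purified CDK/cyclin complex was added to compound after brief centrifugation.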
# [5] = system: HCT116; assay: Cellular HCT116 viability assay (CellTiter-Glo, 72 hours); assay type: cell-based; conditions: Homo sapiens, HCT-116
# How it was run: (§2)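 Cells were plated at line-specific densities and exposed to compound for 72 hours at 37 °C, 5% CO2, with DMSO-only wells as control (final DMSO below 0.1%). Viability was measured by CellTiter-Glo luminescence in duplicate.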
# [6] = system: H460; assay: Cellular H460 viability assay (CellTiter-Glo, 72 hours); assay type: cell-based; conditions: Homo sapiens, NCI-H460
# How it was run: as §2
# [7] = system: MV4-11; assay: Cellular MV4-11 viability assay (CellTiter-Glo, 72 hours); assay type: cell-based; conditions: Homo sapiens
# How it was run: as §2
# [8] = system: RPMI-8226; assay: Cellular RPMI-8226 viability assay (CellTiter-Glo, 72 hours); assay type: cell-based; conditions: Homo sapiens
# How it was run: as §2
# [9] = system: A2780; assay: Cellular A2780 viability assay (CellTiter-Glo, 72 hours); assay type: cell-based; conditions: Homo sapiens
# How it was run: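 Cells seeded at 1×10^4/well (MM.1S), 5×10^3 (OVCAR-3) or 1×10^3 (A2780), grown in RPMI-1640 with 10% FBS. After 24 h, compound added at 0.0015–10 uM, final DMSO below 0.1%, for 72 h at 37° C. Viability read by CellTiter-Glo luminescence in duplicate, with curve fitting.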
# [10] = system: OVCAR-3; assay: Cellular OVCAR-3 viability assay (CellTiter-Glo, 72 hours); assay type: cell-based; conditions: Homo sapiens
# Source text: Human T-cell acute lymphoblastic leukemia cell line, MOLT-4 (ATCC, Cat #CRL-1582), Human multiple myeloma cell line, RPMI-8226 (Invitrogen, Cat #22400-089) and MM.1S (ATCC, Cat #CRL-2974), NSCLC (Non-small cell lung cancer) cell line H460 (ATCC, Cat #HTB-177), Human colon colorectal carcinoma cell line HCT116 (ATCC, Cat #CCL-247), Human acute monocytic leukemia cell line MV4-11 (ATCC, Cat #CRL-9591), OVCAR-3 (ATCC, Cat #HTB-161) and A2780 (ECACC, Cat #93112519) were obtained from ATCC. Cells were grown in RPMI-1640 media (Invitrogen, Cat #22400-089) supplemented with 10% FBS (Invitrogen, Cat #10099141) and 1% penicillin/streptomycin (Invitrogen, Cat #15070063) and cultured at 37° C., 5% CO2 in a humidified chamber. All cell lines were routinely tested for mycoplasma.
# The effect of the CDK7 inhibitor to inhibit the growth of target cancer cells was evaluated through the 72 hours time period of viability assay. Briefly, the candidate cell line ware plated in 96 well plate at the following density of cells respectively. 1×10^4 cells/well for MOLT-4, RPMI-8226, MV4-11 and MM.1S, 5×10^3 for H460, HCT116 and OVCAR-3 and IX 10^3 for A2780. After 24 hours, the cells were treated with various concentrations of the compound (ranging from 0.0015 uM to 10 uM). DMSO solvent without compound served as a control and final DMSO concentration less than 0.1%. After 72 hours of incubation at 37° C., 5% CO2 incubator, cells were analyzed for the viability using the CellTiter-Glo Luminescent Cell Viability Assay (Promega, Cat #G7570). All viability assays were performed in duplicate and Luminescence was read using an Envision (Perkin Elmer, USA). Data was analyzed using XLfit software.
# [11] = read-out: CDK1 enzymatic activity (IC50 range)
# [12] = read-out: CDK2 enzymatic activity (IC50 range)
# [13] = read-out: CDK5 enzymatic activity (IC50 range)
# [14] = read-out: CDK7 enzymatic activity (IC50 range)
# [15] = read-out: CDK1 enzymatic activity (IC50 activity range)
# [16] = read-out: CDK2 enzymatic activity (IC50 activity range)
# [17] = read-out: CDK5 enzymatic activity (IC50 activity range)
# [18] = read-out: CDK7 enzymatic activity (IC50 activity range)
Structure (SMILES),"IC50 [1, 11] [nM]","IC50 [2, 12] [nM]","IC50 [3, 13] [nM]",CDK1/CDK7: Selectivity of CDK7 inhibition over CDK1 inhibition ([4]; CDK7 over CDK1),CDK2/CDK7: Selectivity of CDK7 inhibition over CDK2 inhibition ([4]; CDK7 over CDK2),CDK5/CDK7: Selectivity of CDK7 inhibition over CDK5 inhibition ([4]; CDK7 over CDK5),"IC50 [4, 14] [nM]",IC50 [5] [nM],IC50 [6] [nM],IC50 [7] [nM],IC50 [8] [nM],IC50 [9] [nM],IC50 [10] [nM],"IC50 [1, 15] [nM]","IC50 [2, 16] [nM]","IC50 [3, 17] [nM]",CDK1/CDK7: Selectivity of CDK7 inhibition over CDK1 inhibition ([4]; CDK1/CDK7),CDK2/CDK7: Selectivity of CDK7 inhibition over CDK2 inhibition ([4]; CDK2/CDK7),CDK5/CDK7: Selectivity of CDK7 inhibition over CDK5 inhibition ([4]; CDK5/CDK7),"IC50 [4, 18] [nM]"
CC(C)c1cnn2c(NCc3ccccc3-c3cc4cccc(NC(=O)C5CC5)c4[nH]3)nc(N3CCC(N)CC3)nc12 [Compound 144],100 to 1000,100 to 1000,< 100,"B (B=less than 200 fold, but greater than 20 fold)","B (B=less than 200 fold, but greater than 20 fold)",C (C=less than 20 fold),< 100,< 1000,< 1000,< 1000,< 1000,≤ 1000,1000 to 10000,,,,,,,
CC(C)c1cnn2c(NCc3ccccc3-c3ccc4ccccc4n3)nc(N3CCNC[C@H]3CO)nc12 [Compound 271],,,,,,,,,< 1000,< 1000,,≤ 1000,≤ 1000,> 1000,> 1000,> 1000,A (A=greater than 200 fold),A (A=greater than 200 fold),A (A=greater than 200 fold),< 100
CC(C)c1cnn2c(NCc3ccccc3-c3ccc4ccccc4n3)nc(N[C@H]3CC[C@H](O)CC3)nc12 [Compound 266],,,,,,,,,< 1000,1000 to 10000,,≤ 1000,≤ 1000,> 1000,> 1000,> 1000,A (A=greater than 200 fold),A (A=greater than 200 fold),A (A=greater than 200 fold),< 100
CC(C)c1cnn2c(NCc3ccccc3-c3ccc4ccccc4n3)nc(N3CCC(O)(CN)CC3)nc12 [Compound 219],> 1000,> 1000,> 1000,A (A=greater than 200 fold),A (A=greater than 200 fold),A (A=greater than 200 fold),< 100,< 1000,< 1000,< 1000,,≤ 1000,1000 to 10000,,,,,,,
CC(C)c1cnn2c(NCc3ccccc3-c3nccc4cc(NC(=O)CCCN(C)C)ccc34)nc(NC[C@H]3CCNC[C@@H]3O)nc12 [Compound 278],,,,,,,,,,,,1000 to 10000,> 10000,> 1000,> 1000,> 1000,A (A=greater than 200 fold),A (A=greater than 200 fold),A (A=greater than 200 fold),< 100
CC(C)c1cnn2c(NCc3ccccc3-c3ccc4ccccc4n3)nc(NCC[C@@H](O)CN)nc12 [Compound 251],,,,,,,,,< 1000,< 1000,,≤ 1000,1000 to 10000,> 1000,> 1000,> 1000,A (A=greater than 200 fold),A (A=greater than 200 fold),A (A=greater than 200 fold),< 100
CC(C)c1cnn2c(NCc3ccccc3-c3ccc4ccccc4n3)nc(N[C@H]3CC[C@@H](O)CC3)nc12 [Compound 265],,,,,,,,,< 1000,1000 to 10000,,≤ 1000,1000 to 10000,> 1000,> 1000,> 1000,A (A=greater than 200 fold),A (A=greater than 200 fold),A (A=greater than 200 fold),< 100
CC(C)c1cnn2c(NCc3ccccc3-c3ccc4ccccc4n3)nc(NC[C@H]3CCNC[C@@H]3O)nc12 [Compound 225],> 1000,100 to 1000,100 to 1000,A (A=greater than 200 fold),A (A=greater than 200 fold),A (A=greater than 200 fold),< 100,< 1000,< 1000,< 1000,,≤ 1000,≤ 1000,,,,,,,
CC(C)c1cnn2c(NCc3ccccc3-c3nccc4ccccc34)nc(NC[C@H]3CCNC[C@@H]3O)nc12 [Compound 279],,,,,,,,,,,,≤ 1000,1000 to 10000,> 1000,> 1000,> 1000,"B (B=less than 200 fold, but greater than 20 fold)","B (B=less than 200 fold, but greater than 20 fold)","B (B=less than 200 fold, but greater than 20 fold)",100 to 1000
